Measured values published in patent US20070059756A1, “Immunointeractive molecules and their uses in treating subjects suffering from Hev b 5 allergies” (priority 1999, published 2007).

How the values were obtained:
[1] = system: latex specific T cell lines; assay: Oligoclonal T cell proliferation assay (3H-thymidine incorporation); assay type: cell-based, human; set-up: key to Proliferation inducing (+) or non-inducing (−) peptide: Proliferation inducing and non-inducing peptides are indicated by (+) and (−) respectively; Proliferation inducing and non-inducing peptides are indicated by (+) and (−) respectively; conditions: for Oligoclonal proliferative response: 4 day cultures
Protocol: Latex specific T cell lines were isolated using our well established methods for the generation of allergen specific oligoclonal T cell populations (O'Hehir et al., 1987). An initial primary culture was performed for each patient to determine the optimal concentration of LAL for stimulation. For this, peripheral blood mononuclear cells (PBMC) separated from heparinised venous blood by density centrifugation (2×10^5/well) were stimulated with LAL over a concentration range 0.03 to 100 μg/ml, with control cultures of PBMC alone or stimulated with tetanus toxoid. All cultures were maintained in complete medium (RPMI-1640, Gibco Life Technologies supplemented with 2 mmol/L L-glutamine, 100 IU/ml penicillin-streptomycin and 5% screened, heat inactivated human AB serum [Sigma]). […] Therefore, to generate T cell lines, PBMC (2.5×10^6/well) were stimulated for 1 week with LAL at a concentration of 20 μg/ml in 24-well tissue culture plates (Costar, USA). After 7 days, lymphoblasts (1×10^6/well) were restimulated for one week with LAL at a concentration of 20 μg/ml in the presence of an equal number of irradiated (3000 rad) autologous PBMC as antigen presenting cells (APC). On days 2 and 4, cultures were supplemented with Lymphocult-T (5% v/v; Biotest Folex, Germany) and fresh medium. At the end of the second week, lymphoblasts were restimulated for one week with rhev b 5/MBP at a concentration of 20 μg/ml as described above. Oligoclonal T cells were recovered, washed and tested in proliferation and cytokine assays (as described below) either fresh or after cryopreservation in liquid nitrogen. We have previously shown that CD4^+ T cells are preferentially expanded in these cultures.
Oligoclonal T cell blasts (5×10^4) were incubated in 96-well round bottom plates (Linbro, ICN Biomedicals, USA) in triplicate with equal numbers of irradiated APC in the presence of LAL at concentrations ranging from 0.03-100 μg/ml, rHev b 5/MBP (10 and 20 μg/ml), MBP (10 and 20 μg/ml), overlapping peptides of the Hev b 5 sequence (10 and 30 μg/ml), Lymphocult-T (10 IU/ml) or PHA (3 μg/ml). Cultures of T cells and APC in the absence of antigen, T cells alone and APC alone in the absence of antigen were included as controls. After 72 hours cultures were pulsed with 1 μCi of ^3H-thymidine (^3HTdR; Du Pont, NEN) and harvested 12-16 hours later. Proliferation as correlated with ^3HTdR incorporation was measured by liquid scintillation spectroscopy. Results are expressed as mean counts per minute (cpm) for triplicate cultures with standard deviation (SD; ±20% for all experiments).

IL-5 = IL-5 production by latex specific oligoclonal T cells (ELISA on culture supernatants); assay type: cell-based, human; conditions: for IL-5: supernatant at 48 hours
Protocol: (§1) Representative stimulatory and non-stimulatory peptides were selected and T cells cultured in triplicate with these peptides. At 48 hours 50 μl of supernatant was harvested from the cultures and IL-5 and IFNγ were assayed by ELISA using paired cytokine antibodies (from Pharmingen Becton Dickinson, USA and Endogen, USA respectively). For this, opaque flat bottom ELISA plates (Nalgene, Nunc International) were coated with 30 μl capture antibody at 2 μg/ml in 0.1 M NaHCO3 pH 8.2 coating buffer overnight at 4° C. After washing three times with PBS/0.5% Tween the wells were blocked with 3% BSA/PBS at room temperature for 2 hours. The plates were washed and 30 μL pooled triplicate culture supernatants added in duplicate. […] Light emission was read immediately on a Lumicount microplate Glow Luminometer (Packard Instrument Company). A standard curve was run each time using known concentrations of standard cytokine samples and the concentrations of IL-S and IFNγ in the culture supernatants calculated accordingly. The lower limit of detection of the IL-5 assay was 20 pg/ml and the lower limit of detection of the IFN-γ assay was 2 pg/ml.

IFNγ = IFNγ production by latex specific oligoclonal T cells (ELISA on culture supernatants); assay type: cell-based, human; conditions: supernatant at 48 hours
Protocol: as §1

IgE = conditions: cited from earlier work
[2] = P1 T cell line, peptide 10 μg/ml
[3] = P1 T cell line, peptide 30 μg/ml
[4] = P2 T cell line, peptide 10 μg/ml
[5] = P2 T cell line, peptide 30 μg/ml
[6] = P3 T cell line, peptide 10 μg/ml
[7] = P3 T cell line, peptide 30 μg/ml
[8] = P4 T cell line, peptide 10 μg/ml
[9] = P4 T cell line, peptide 30 μg/ml

## TPEKEEPTAAPAEPEAPAPE [Hev b 5 (46-65)]
[1]; P1 T cell line
  Proliferation inducing (+) or non-inducing (−) peptide: 46-65 (+)
[1]; P1 T cell line, antigen 10 μg/ml
  Oligoclonal proliferative response: 21.3 counts per minute × 10^−3
[1]; P1 T cell line, antigen 30 μg/ml
  Oligoclonal proliferative response: 19.6 counts per minute × 10^−3
[1]; P2 T cell line
  Proliferation inducing (+) or non-inducing (−) peptide: 46-65 (+)
[1]; P2 T cell line, antigen 10 μg/ml
  Oligoclonal proliferative response: 13.4 counts per minute × 10^−3
[1]; P2 T cell line, antigen 30 μg/ml
  Oligoclonal proliferative response: 22.6 counts per minute × 10^−3
[1]; P3 T cell line
  Proliferation inducing (+) or non-inducing (−) peptide: 46.65 (+)
[1]; P3 T cell line, antigen 10 μg/ml
  Oligoclonal proliferative response: 25.8 counts per minute × 10^−3
[1]; P3 T cell line, antigen 30 μg/ml
  Oligoclonal proliferative response: 19.2 counts per minute × 10^−3
[1]; P4 T cell line
  Proliferation inducing (+) or non-inducing (−) peptide: 46-65 (+)
[1]; P4 T cell line, antigen 10 μg/ml
  Oligoclonal proliferative response: 4.4 counts per minute × 10^−3
[1]; P4 T cell line, antigen 30 μg/ml
  Oligoclonal proliferative response: 5.3 counts per minute × 10^−3
[1]; P5 T cell line, antigen 10 μg/ml
  Oligoclonal proliferative response: 4.9 counts per minute × 10^−3
[1]; P5 T cell line, antigen 30 μg/ml
  Oligoclonal proliferative response: 5.6 counts per minute × 10^−3
[1]; P6 T cell line, antigen 10 μg/ml
  Oligoclonal proliferative response: 1.5 counts per minute × 10^−3
[1]; P6 T cell line, antigen 30 μg/ml
  Oligoclonal proliferative response: 1.2 counts per minute × 10^−3
[1]; fifth of five donors (patient 5)
  stimulation index: 5.6
[1]; first of five donors with IgE reactivity to rHev b 5/MBP (patient 1)
  stimulation index: 5.9
[1]; five donors with IgE reactivity to rHev b 5/MBP
  donors whose T cells proliferated in response to the peptide: all five donors
[1]; fourth of five donors (patient 4)
  stimulation index: 5.9
[1]; second of five donors (patient 2)
  stimulation index: 10.8
[1]; third of five donors (patient 3)
  stimulation index: 5.0
IL-5; [2]
  IL-5/IFNγ ratio: 172
  IL-5: 344 pg/mL
IL-5; [3]
  IL-5/IFNγ ratio: 139.5
  IL-5: 279 pg/mL
IL-5; [4]
  IL-5/IFNγ ratio: 3.2
  IL-5: 58 pg/mL
IL-5; [5]
  IL-5/IFNγ ratio: 7.6
  IL-5: 408 pg/mL
IL-5; [6]
  IL-5/IFNγ ratio: 9.8
  IL-5: 3799 pg/mL
IL-5; [7]
  IL-5/IFNγ ratio: 14
  IL-5: 3186 pg/mL
IL-5; [8]
  IL-5/IFNγ ratio: 22.4
  IL-5: 561 pg/mL
IL-5; [9]
  IL-5/IFNγ ratio: 43.2
  IL-5: 519 pg/mL
IL-5; patient 4 T cell line
  secretion of IL-5 (in words): secretion of IL-5
IFNγ; [2]
  IFNγ: 2 pg/mL
IFNγ; [3]
  IFNγ: 2 pg/mL
IFNγ; [4]
  IFNγ: 18 pg/mL
IFNγ; [5]
  IFNγ: 54 pg/mL
IFNγ; [6]
  IFNγ: 388 pg/mL
IFNγ; [7]
  IFNγ: 227 pg/mL
IFNγ; [8]
  IFNγ: 25 pg/mL
IFNγ; [9]
  IFNγ: 12 pg/mL

B1: Hev b 5: major allergen in natural rubber latex, highly acidic and proline rich protein of Hevea brasiliensis (protein, listed as Hevea brasiliensis)
chain: MASVEVESAATALPKNETPEVTKAEETKTEEPAAPPASEQETADATPEKEEPTAAPAEPEAPAPETEKAEEVEKIEKTEEPAPEADQTTPEEKPAEPEPVAEEEPKHETKETETEAPAAPAEGEKPAEEEKPITEAAETATTEVPVEKTEE
IgE; HCW
  proportion of HCW with latex allergy whose IgE reacts: 92%
IgE; spina bifida patients
  proportion of spina bifida patients with latex allergy whose IgE reacts: 56%
